Test results published in ChEMBL document CHEMBL5674872, “JMJD3 aids in reprogramming of bone marrow progenitor cells to hepatic phenotype through epigenetic activation of hepatic transcription factors” (PLoS One, 2017).
The source made the active and inactive calls.

How the values were obtained:
Settings in all cases: time 14.0 day
[1] = molecular target: Lysine-specific demethylase 6B (Mus musculus) (UniProt Q5NCY0); assay: Inhibition of JMJD3 expression in Bl6/J female eGFP-expressing mouse Lin-BM cells assessed as H3K27me3 enrichments level at promoters of HNF4-alpha at 100 nM incubated for 14 days by ChIP-qPCR method; format: cell-based
[2] = molecular target: Lysine-specific demethylase 6B (Mus musculus) (UniProt Q5NCY0); assay: Inhibition of JMJD3 expression in Bl6/J female eGFP-expressing mouse Lin-BM cells assessed as H3K27me3 enrichments level at promoters of GATA4 at 100 nM incubated for 14 days by ChIP-qPCR method; format: cell-based
[3] = molecular target: Lysine-specific demethylase 6B (Mus musculus) (UniProt Q5NCY0); assay: Inhibition of JMJD3 expression in Bl6/J female eGFP-expressing mouse Lin-BM cells assessed as H3K27me3 enrichments level at promoters of HNF1-alpha at 100 nM incubated for 14 days by ChIP-qPCR method; format: cell-based
[4] = molecular target: Lysine-specific demethylase 6B (Mus musculus) (UniProt Q5NCY0); assay: Inhibition of JMJD3 expression in Bl6/J female eGFP-expressing mouse Lin-BM cells assessed as H3K27me3 enrichments level at promoters of CEBP-alpha at 100 nM incubated for 14 days by ChIP-qPCR method; format: cell-based
Lin-BM = assay: Inhibition of JMJD3 expression in Bl6/J female eGFP-expressing mouse Lin-BM cells at 100 nM incubated for 14 days by immuno-cytochemistry analysis; format: functional, cell-based
[5] = molecular target: Lysine-specific demethylase 6B (Mus musculus) (UniProt Q5NCY0); assay: Inhibition of JMJD3 expression in Bl6/J female eGFP-expressing mouse Lin-BM cells assessed as H3K27me3 enrichments level at promoters of HNF3-alpha at 100 nM incubated for 14 days by ChIP-qPCR method; format: cell-based
[6] = molecular target: Lysine-specific demethylase 6B (Mus musculus) (UniProt Q5NCY0); assay: Inhibition of JMJD3 expression in Bl6/J female eGFP-expressing mouse Lin-BM cells assessed as H3K27me3 enrichments level at promoters of HNF3-beta at 100 nM incubated for 14 days by ChIP-qPCR method; format: cell-based
[7] = molecular target: Lysine-specific demethylase 6B (Mus musculus) (UniProt Q5NCY0); assay: Inhibition of JMJD3 expression in Bl6/J female eGFP-expressing mouse Lin-BM cells assessed as reduction in hepatic differentiation at 100 nM incubated for 14 days by immuno-cytochemistry analysis; format: cell-based
[8] = molecular target: Lysine-specific demethylase 6B (Mus musculus) (UniProt Q5NCY0); assay: Inhibition of JMJD3 expression in Bl6/J female eGFP-expressing mouse Lin-BM cells assessed as prevention of loss of H3K27me3 chromatin mark at 100 nM incubated for 14 days by immuno-cytochemical analysis; format: cell-based

Measured: inhibition

Chain of Lysine-specific demethylase 6B (Mus musculus) (Q5NCY0 whole entry): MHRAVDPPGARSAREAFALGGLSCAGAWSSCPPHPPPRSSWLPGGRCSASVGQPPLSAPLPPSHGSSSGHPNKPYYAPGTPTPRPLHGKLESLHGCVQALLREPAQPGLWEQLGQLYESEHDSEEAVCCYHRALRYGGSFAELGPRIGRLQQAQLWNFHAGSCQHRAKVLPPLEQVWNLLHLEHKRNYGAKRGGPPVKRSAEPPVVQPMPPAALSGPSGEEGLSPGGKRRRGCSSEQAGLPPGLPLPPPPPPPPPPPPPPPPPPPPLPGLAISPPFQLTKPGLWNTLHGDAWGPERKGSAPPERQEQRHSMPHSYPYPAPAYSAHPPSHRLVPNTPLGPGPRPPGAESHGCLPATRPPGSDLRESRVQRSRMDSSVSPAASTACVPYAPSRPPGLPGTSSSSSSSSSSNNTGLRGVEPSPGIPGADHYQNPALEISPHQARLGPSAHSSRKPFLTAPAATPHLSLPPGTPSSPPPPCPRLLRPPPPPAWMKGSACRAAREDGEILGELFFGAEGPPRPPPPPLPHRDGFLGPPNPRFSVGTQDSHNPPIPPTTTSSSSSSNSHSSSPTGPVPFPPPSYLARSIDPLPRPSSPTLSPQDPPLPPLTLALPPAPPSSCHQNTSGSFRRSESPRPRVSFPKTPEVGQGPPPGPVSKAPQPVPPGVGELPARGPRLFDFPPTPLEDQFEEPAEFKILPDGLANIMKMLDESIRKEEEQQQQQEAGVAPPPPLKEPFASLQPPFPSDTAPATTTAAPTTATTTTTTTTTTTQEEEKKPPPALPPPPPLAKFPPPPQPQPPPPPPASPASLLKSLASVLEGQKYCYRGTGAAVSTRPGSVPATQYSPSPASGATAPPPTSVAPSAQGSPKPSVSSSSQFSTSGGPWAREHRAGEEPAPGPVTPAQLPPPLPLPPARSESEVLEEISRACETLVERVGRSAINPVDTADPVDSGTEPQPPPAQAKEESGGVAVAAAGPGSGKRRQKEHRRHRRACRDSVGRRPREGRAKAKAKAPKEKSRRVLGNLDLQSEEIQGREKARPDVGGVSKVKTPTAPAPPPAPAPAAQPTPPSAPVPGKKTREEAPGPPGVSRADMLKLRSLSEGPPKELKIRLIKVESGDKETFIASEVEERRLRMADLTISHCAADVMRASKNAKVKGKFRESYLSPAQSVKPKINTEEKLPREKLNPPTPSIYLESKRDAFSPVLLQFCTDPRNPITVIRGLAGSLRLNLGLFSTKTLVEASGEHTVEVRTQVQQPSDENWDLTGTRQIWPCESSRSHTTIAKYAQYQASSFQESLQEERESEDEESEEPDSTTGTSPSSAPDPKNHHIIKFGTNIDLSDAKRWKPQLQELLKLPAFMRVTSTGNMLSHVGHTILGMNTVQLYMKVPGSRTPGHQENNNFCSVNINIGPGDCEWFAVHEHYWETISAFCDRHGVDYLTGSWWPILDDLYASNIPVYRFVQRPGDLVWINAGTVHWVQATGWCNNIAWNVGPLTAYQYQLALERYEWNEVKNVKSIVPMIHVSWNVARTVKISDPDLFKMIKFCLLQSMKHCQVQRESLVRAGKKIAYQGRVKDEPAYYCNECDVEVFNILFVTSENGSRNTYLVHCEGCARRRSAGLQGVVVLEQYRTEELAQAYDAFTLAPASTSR

CCOC(=O)CCNc1cc(N2CCc3ccccc3CC2)nc(-c2ccccn2)n1
active: all assays above
